System: NCI-H322M multicellular tumor spheroids, viability (% test/control)
Experiment: Anticancer human tumor NCI-H322M cell line growth inhibition;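 as to viability, T/C: spheroids exposed to compound for seven days before readout; 100% = DMSO vehicle control wells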
Settings: for IC50: curve of first compound; for viability, T/C: stronger effect = lower value
Excerpt: Multicellular complex tumor spheroid response to DNA repair inhibitors in combination with DNA-damaging drugs
This study explores the anticancer activities of DNA-damaging drugs and inhibitors of DNA damage repair, both as single agents and in combinations. Complex tumor spheroids comprised of malignant cells, endothelial cells and mesenchymal stem cells served as an in vitro model for human solid tumors. This model system incorporates physiologically relevant features and patient-derived or established malignant cell lines with clinically relevant genetic alterations from many tumor types. Twenty-six patient-derived or established malignant cell lines were evaluated representing sarcoma, melanoma, small cell lung cancer (SCLC), non-small cell lung cancer (NSCLC), as well as bladder, ovarian and pancreatic cancers. The concentration ranges selected for each drug and investigational agent were based upon clinically achievable concentrations if the clinical Cmax of the agent was known.
Compounds. The drugs and compounds olaparib (NSC753686), talazoparib (NSC767125), berzosertib (NSC777718), elimusertib (NSC800525), nedisertib (NSC802822), VX-984 (NSC792969), AZD-1390 (NSC803789), temozolomide (NSC362856), topotecan (NSC609699), trabectedin (NSC813783), staurosporine (NSC755774), and gemcitabine (NSC613327) were obtained from the National Cancer Institute (NCI) Developmental Therapeutics Program Chemical Repository. The FDA-approved anticancer drug set is available from the Developmental Therapeutics Program at https://dtp.cancer.gov/organization/dscb/obtaining/available_plates.htm. […] The stock solutions were prepared in dimethyl sulfoxide (DMSO, Sigma-Aldrich, St. Louis, MO, cat. D2650) at 400-fold the tested concentration and stored at -70 degrees C. Prior to their use, the stock solutions were diluted in fresh medium and the final DMSO concentration in the assay was 0.25% (v/v). All drugs and investigational agents were tested over a range starting from a high concentration at or near the clinical Cmax and decreasing in half-log increments. If the clinical Cmax for an agent had not been determined, the highest concentration tested was 10 microM.
Cell Lines. The patient-derived cancer cell (PDC) lines: 156681-154-R-J1-PDC, 283228-195-R-J1-PDC, 287954-098-R-J1-PDC, 292921-168-R-J2-PDC, 349418-098-R-PDC, 425362-245-T-J1-PDC, 556581-035-R-J1-PDC, and BL0293-F563-PDC were received from the NCI Patient-Derived Models Repository (PDMR, https://pdmr.cancer.gov). The established cell lines HS-SY-2 (RRID:CVCL_8719), MPNST, and SYO-1 (RRID:CVCL_7146) were obtained from the Sloan Kettering Institute. The alveolar soft parts sarcoma cell line ASPS-1 (RRID:CVCL_S738) was established at the NCI and grown from internal seed stocks. The following established cell lines were purchased from the American Type Culture Collection (ATCC, Manassas, VA): G-401 (ATCC, cat. CRL-1441, RRID:CVCL_0270), SW982 (ATCC, cat. HTB-93, RRID:CVCL_1734), VA-ES-BJ (ATCC, cat. CRL-2138, RRID:CVCL_1785), NCI-H719 (ATCC, cat. CRL-5837, RRID:CVCL_1582), NCI-H196 (ATCC, cat. CRL-5823, RRID:CVCL_1509), NCI-H841 (ATCC, cat. CRL-5845, RRID:CVCL_1595), NCI-H1618 (ATCC, cat. CRL-5879, RRID:CVCL_1480), NCI-H1876 (ATCC, cat. CRL-5902, RRID:CVCL_1503), DMS 114 (ATCC, cat. CRL-2066; RRID:CVCL_1174), NCI-H211 (ATCC, cat. CRL-5824; RRID:CVCL_1529), and SW 1271 (ATCC, cat. CRL-2177, RRID:CVCL_1716). The small cell lung cancer cell line COR-L88 was purchased from Sigma-Aldrich (cat. 92031917-1VL, RRID:CVCL_1141). The non-small cell lung cancer cell lines NCI-H226 (RRID:CVCL_1544) and NCI-H322M (RRID:CVCL_1557) were established at the NCI and grown from internal seed stocks. Pooled donor human umbilical vein endothelial cells (HUVEC, Lonza, cat. CC-2519) and human mesenchymal stem cells (hMSC, Lonza, cat. PT-2501) were purchased from Lonza (Walkersville, MD).
Cell Culture. All cells were maintained in an incubator at 37 degrees C and 5% CO2 with 95% humidity. […]

[1] = second compound 0.003 µM, first compound 0.00949 µM
[2] = second compound 0.003 µM, first compound 0.03 µM
[3] = second compound 0.003 µM, first compound 0.0949 µM
[4] = second compound 0.003 µM, first compound 0.3 µM
[5] = second compound 0.003 µM, first compound 0.949 µM
[6] = second compound 0.003 µM, first compound 3 µM
[7] = second compound 0.00949 µM, first compound 0.00949 µM
[8] = second compound 0.00949 µM, first compound 0.03 µM
[9] = second compound 0.00949 µM, first compound 0.0949 µM
[10] = second compound 0.00949 µM, first compound 0.3 µM
[11] = second compound 0.00949 µM, first compound 0.949 µM
[12] = second compound 0.00949 µM, first compound 3 µM
[13] = second compound 0.03 µM, first compound 0.00949 µM
[14] = second compound 0.03 µM, first compound 0.03 µM
[15] = second compound 0.03 µM, first compound 0.0949 µM
[16] = second compound 0.03 µM, first compound 0.3 µM
[17] = second compound 0.03 µM, first compound 0.949 µM
[18] = second compound 0.03 µM, first compound 3 µM
[19] = second compound 0.0949 µM, first compound 0.00949 µM
[20] = second compound 0.0949 µM, first compound 0.03 µM
[21] = second compound 0.0949 µM, first compound 0.0949 µM
[22] = second compound 0.0949 µM, first compound 0.3 µM
[23] = second compound 0.0949 µM, first compound 0.949 µM
[24] = second compound 0.0949 µM, first compound 3 µM
[25] = second compound 0.3 µM, first compound 0.00949 µM
[26] = second compound 0.3 µM, first compound 0.03 µM
[27] = second compound 0.3 µM, first compound 0.0949 µM
[28] = second compound 0.3 µM, first compound 0.3 µM
[29] = second compound 0.3 µM, first compound 0.949 µM
[30] = second compound 0.3 µM, first compound 3 µM

Structure (SMILES)	IC50 (second compound 0.003 µM)	IC50 (second compound 0.00949 µM)	IC50 (second compound 0.03 µM)	IC50 (second compound 0.0949 µM)	IC50 (second compound 0.3 µM)	viability, T/C [3]	viability, T/C [4]	viability, T/C [5]	viability, T/C [6]	viability, T/C [9]	viability, T/C [10]	viability, T/C [11]	viability, T/C [12]	viability, T/C [15]	viability, T/C [16]	viability, T/C [17]	viability, T/C [18]	viability, T/C [21]	viability, T/C [22]	viability, T/C [23]	other results
CNCc1ccc(-c2cc(-c3nc(-c4ccc(S(=O)(=O)C(C)C)cc4)cnc3N)on2)cc1 + CC[C@@]1(O)C(=O)OCc2c1cc1n(c2=O)Cc2cc3c(CN(C)C)c(O)ccc3nc2-1	> 3 µM	> 3 µM	> 3 µM	> 3 µM	1.47 µM	96%	79.7%	78%	85.6%	83.7%	75.4%	81.3%	85.7%	85.5%	69.1%	86%	86.6%	61.3%	74.2%	59.7%	viability, T/C [1]: 79.2%; viability, T/C [2]: 93.3%; viability, T/C [7]: 95.3%; viability, T/C [8]: 87.9%; viability, T/C [13]: 88.4%; viability, T/C [14]: 74.7%; viability, T/C [19]: 69.3%; viability, T/C [20]: 66%; viability, T/C [24]: 69.1%; viability, T/C [25]: 55.2%; viability, T/C [26]: 56.4%; viability, T/C [27]: 59.1%; viability, T/C [28]: 54.7%; viability, T/C [29]: 51.7%; viability, T/C [30]: 46.2%
Cn1ncnc1[C@H]1c2n[nH]c(=O)c3cc(F)cc(c23)N[C@@H]1c1ccc(F)cc1 + CC[C@@]1(O)C(=O)OCc2c1cc1n(c2=O)Cc2cc3c(CN(C)C)c(O)ccc3nc2-1	> 3 µM	> 3 µM	> 3 µM	1.63 µM	0.00964 µM	89.6%	71.9%	79.6%	68.6%	80.6%	73.7%	69%	70.7%	78.4%	70.2%	63.7%	65%	59.4%	51.5%	51.2%	viability, T/C [1]: 84.3%; viability, T/C [2]: 87.1%; viability, T/C [7]: 85.1%; viability, T/C [8]: 78.2%; viability, T/C [13]: 76.6%; viability, T/C [14]: 72.5%; viability, T/C [19]: 67.4%; viability, T/C [20]: 56.3%; viability, T/C [24]: 50.2%; viability, T/C [25]: 50.8%; viability, T/C [26]: 46.2%; viability, T/C [27]: 49.2%; viability, T/C [28]: 49.9%; viability, T/C [29]: 47%; viability, T/C [30]: 44.1%
O=C(c1cc(Cc2n[nH]c(=O)c3ccccc23)ccc1F)N1CCN(C(=O)C2CC2)CC1 + CC[C@@]1(O)C(=O)OCc2c1cc1n(c2=O)Cc2cc3c(CN(C)C)c(O)ccc3nc2-1	> 30 µM	> 30 µM	> 30 µM	> 30 µM	< 0.0949 µM	77.7%	78.8%	79.2%	87.3%	85.7%	73%	71.6%	77%	67.5%	69.7%	78.4%	78.5%	56.4%	57.6%	60.5%	viability, T/C (second compound 0.003 µM, first compound 9.49 µM): 95.8%; viability, T/C (second compound 0.003 µM, first compound 30 µM): 78.2%; viability, T/C (second compound 0.00949 µM, first compound 9.49 µM): 66.9%; viability, T/C (second compound 0.00949 µM, first compound 30 µM): 83.5%; viability, T/C (second compound 0.03 µM, first compound 9.49 µM): 78.5%; viability, T/C (second compound 0.03 µM, first compound 30 µM): 75.4%; viability, T/C [24]: 51.4%; viability, T/C (second compound 0.0949 µM, first compound 9.49 µM): 50.5%; viability, T/C (second compound 0.0949 µM, first compound 30 µM): 61.1%; viability, T/C [27]: 42.5%; viability, T/C [28]: 48.8%; viability, T/C [29]: 45.3%; viability, T/C [30]: 49.6%; viability, T/C (second compound 0.3 µM, first compound 9.49 µM): 55.1%; viability, T/C (second compound 0.3 µM, first compound 30 µM): 46.5%

Reference: PubChem BioAssay AID1845211 (Molecular Pharmacology Branch, DTP, NCI, 2023)
